What all share (format): functional
The target of assay [1] is T1, High affinity choline transporter 1 (Homo sapiens, UniProt Q9GZV3).
T1 sequence (Q9GZV3 whole entry): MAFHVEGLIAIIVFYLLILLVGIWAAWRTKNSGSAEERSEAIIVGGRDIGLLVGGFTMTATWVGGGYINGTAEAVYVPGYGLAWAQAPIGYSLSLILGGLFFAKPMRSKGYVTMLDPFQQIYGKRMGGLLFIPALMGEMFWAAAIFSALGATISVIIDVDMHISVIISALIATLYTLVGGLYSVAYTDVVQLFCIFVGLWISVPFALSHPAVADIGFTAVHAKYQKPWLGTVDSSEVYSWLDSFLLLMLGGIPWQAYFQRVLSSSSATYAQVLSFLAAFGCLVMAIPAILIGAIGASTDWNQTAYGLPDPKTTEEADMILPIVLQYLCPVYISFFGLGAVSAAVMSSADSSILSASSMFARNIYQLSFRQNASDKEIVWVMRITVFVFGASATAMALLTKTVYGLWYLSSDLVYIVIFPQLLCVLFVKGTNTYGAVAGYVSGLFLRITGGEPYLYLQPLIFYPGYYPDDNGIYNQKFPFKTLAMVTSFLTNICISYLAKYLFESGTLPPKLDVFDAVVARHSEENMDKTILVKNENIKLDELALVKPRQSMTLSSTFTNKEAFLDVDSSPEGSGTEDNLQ
Kind of assay: CHT inhibitors, dose response, cell-based, 10-point CRC, membrane potential dye (AID 588401).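 Note: membrane potential dye fluorescence of choline-evoked depolarization via CHT.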

The target of assay [2] is T1, High affinity choline transporter 1. Kind of assay: CHT inhibitors, dose response, cell-based, 5-point CRC, membrane potential dye (AID 504840).
Assay [3] shares this target. The assay is described as follows: inhibitors of CHT choline uptake, dose response, cell-based, 3H-choline uptake, CHT LV-AA trafficking mutant, CRC (AID 602208).
Assay [4] deals with Neuropeptides B/W receptor type 1 (Homo sapiens, UniProt P48145). Kind of assay: GPR7 antagonist potency, late-stage follow-up, cell-based, fluorescence, dose response, set 6 (AID 588583).
Neuropeptides B/W receptor type 1, sequence (P48145 whole entry): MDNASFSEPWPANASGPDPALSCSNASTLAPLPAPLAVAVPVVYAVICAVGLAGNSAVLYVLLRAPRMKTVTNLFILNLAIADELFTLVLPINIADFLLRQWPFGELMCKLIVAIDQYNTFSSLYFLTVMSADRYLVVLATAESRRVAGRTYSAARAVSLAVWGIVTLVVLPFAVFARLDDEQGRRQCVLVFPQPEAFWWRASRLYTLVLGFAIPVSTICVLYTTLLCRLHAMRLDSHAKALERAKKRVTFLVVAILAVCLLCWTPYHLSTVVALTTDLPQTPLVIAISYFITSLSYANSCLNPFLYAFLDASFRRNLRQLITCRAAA
Assay [5] addresses Melanin-concentrating hormone receptor 1 (Homo sapiens, UniProt Q99705). The assay is described as follows: Late-stage fluorescence-based counterscreen for antagonists of the G-protein coupled receptor 7 (GPR7): cell-based dose response assay to identify antagonists of the melanin-concentrating hormone receptor 1 (MCHR1) Set 6.
Assay [6] has as its target T2, Apoptotic protease-activating factor 1 (Homo sapiens, UniProt O14727).
T2 sequence (O14727 whole entry): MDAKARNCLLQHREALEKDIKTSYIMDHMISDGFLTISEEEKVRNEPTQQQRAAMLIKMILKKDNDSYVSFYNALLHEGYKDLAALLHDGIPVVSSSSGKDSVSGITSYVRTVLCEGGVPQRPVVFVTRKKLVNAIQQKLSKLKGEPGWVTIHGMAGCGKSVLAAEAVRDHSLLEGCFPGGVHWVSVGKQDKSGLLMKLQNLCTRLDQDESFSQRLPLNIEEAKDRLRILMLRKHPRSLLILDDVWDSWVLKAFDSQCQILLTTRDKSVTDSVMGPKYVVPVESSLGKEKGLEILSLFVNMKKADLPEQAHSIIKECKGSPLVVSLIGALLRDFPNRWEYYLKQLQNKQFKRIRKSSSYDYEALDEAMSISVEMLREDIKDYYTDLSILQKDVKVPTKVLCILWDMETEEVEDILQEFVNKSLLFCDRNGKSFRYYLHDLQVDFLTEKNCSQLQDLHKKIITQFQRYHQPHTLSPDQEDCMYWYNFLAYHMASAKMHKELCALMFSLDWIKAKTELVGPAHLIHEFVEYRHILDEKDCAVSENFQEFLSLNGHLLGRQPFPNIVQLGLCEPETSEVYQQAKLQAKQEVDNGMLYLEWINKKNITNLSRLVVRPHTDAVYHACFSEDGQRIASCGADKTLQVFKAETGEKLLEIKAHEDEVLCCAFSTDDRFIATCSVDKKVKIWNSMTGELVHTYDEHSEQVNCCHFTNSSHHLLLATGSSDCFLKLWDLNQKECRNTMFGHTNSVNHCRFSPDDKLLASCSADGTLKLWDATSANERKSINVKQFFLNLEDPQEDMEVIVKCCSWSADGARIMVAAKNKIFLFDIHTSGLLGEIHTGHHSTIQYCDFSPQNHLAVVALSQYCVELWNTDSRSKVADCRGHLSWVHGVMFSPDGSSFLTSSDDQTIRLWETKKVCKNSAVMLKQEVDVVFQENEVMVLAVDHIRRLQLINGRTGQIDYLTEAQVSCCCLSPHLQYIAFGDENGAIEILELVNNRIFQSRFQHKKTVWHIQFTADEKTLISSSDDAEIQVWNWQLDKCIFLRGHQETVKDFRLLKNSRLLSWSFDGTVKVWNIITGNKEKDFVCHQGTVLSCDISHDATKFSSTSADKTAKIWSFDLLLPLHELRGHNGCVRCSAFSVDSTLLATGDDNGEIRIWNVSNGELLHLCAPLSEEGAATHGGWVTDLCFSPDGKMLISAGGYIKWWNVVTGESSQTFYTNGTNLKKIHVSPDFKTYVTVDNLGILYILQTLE
Kind of assay: SAR analysis of small molecule Activators of Apaf-1 in a Fluorescent assay - set 2. As to conditions: read-out: EC50_Mean.

The nature of assay [7]: SAR analysis of small molecule activators of Apaf-1 using a LZ-Caspase-9/Caspase-3 Fluorescent Selectivity assay - Set 2. The following applies: read-out: EC50_Mean.

Structures are written as SMILES. Activity calls are given as the source filed them.

Melanin-concentrating hormone receptor 1, sequence (Q99705 whole entry): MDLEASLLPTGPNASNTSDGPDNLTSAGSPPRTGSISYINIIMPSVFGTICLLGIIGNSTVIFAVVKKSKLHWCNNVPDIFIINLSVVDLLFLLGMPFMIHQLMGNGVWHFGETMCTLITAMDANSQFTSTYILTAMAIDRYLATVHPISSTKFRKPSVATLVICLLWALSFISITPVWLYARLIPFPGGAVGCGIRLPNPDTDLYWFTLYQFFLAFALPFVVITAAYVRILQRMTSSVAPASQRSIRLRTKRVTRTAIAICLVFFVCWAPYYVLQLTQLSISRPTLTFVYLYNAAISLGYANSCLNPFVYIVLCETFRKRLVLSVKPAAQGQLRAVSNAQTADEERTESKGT

By IC50 is commonly meant the concentration that inhibits the measured activity by half. `COc1ccc(C(=O)NCc2nc(C)c(C)s2)cc1OC1CCN(C(C)C)CC1`: the values for the IC50 in assay [1], in assay [2] and in assay [3] were 761 nM (active), 1.32 µM (active) and 303 nM (active), respectively.

With `N#CC(c1ccc(F)cc1)c1c(Br)cnn(Cc2cccc3ccccc23)c1=O` (configuration not stated), the IC50 in assay [4] and in assay [5] was 240 nM (active) each time.

Take `COc1ccc(C2=NOC(C(=O)O)C2)cc1` (configuration not stated): the EC50 in assay [6] and in assay [7] was > 100 µM (inactive) in each case.

The values are drawn from ChEMBL document CHEMBL1201862, “PubChem BioAssay data set” (2004).
